From ChEMBL document CHEMBL1909046, “DrugMatrix in vitro pharmacology data”

Molecular target: T1, Alpha-2A adrenergic receptor (Homo sapiens, UniProt P08913); further: in other assays of this panel Not Active means under 50% inhibition at 10 µM
T1 sequence (P08913 whole entry): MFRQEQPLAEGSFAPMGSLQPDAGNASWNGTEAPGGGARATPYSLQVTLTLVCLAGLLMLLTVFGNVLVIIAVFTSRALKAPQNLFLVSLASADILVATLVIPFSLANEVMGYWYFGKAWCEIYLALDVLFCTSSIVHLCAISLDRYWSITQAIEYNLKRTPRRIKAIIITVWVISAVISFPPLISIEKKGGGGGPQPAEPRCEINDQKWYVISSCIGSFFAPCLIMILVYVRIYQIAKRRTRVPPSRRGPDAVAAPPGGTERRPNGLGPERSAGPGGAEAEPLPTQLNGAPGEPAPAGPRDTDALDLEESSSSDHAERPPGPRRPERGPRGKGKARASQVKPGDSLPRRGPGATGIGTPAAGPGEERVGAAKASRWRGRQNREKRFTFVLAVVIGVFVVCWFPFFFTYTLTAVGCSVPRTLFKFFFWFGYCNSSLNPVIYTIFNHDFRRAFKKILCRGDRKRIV
Type: cell membranes, Sf9, Membrane
Conditions: sf9

Q: With ClC1=C(Cl)[C@]2(Cl)[C@@H]3[C@@H]4C[C@@H]([C@H]5O[C@@H]45)[C@@H]3[C@@]1(Cl)C2(Cl)Cl [DIELDRIN] as the molecule, how does the IC50 read?
A: Its IC50 is “Not Active”.

Q: For c1ccc(Cn2ccnc2)cc1, which IC50 is on record?
A: The IC50 was “Not Active”.

Q: For C[C@]12CC[C@@H](O)C[C@@H]1CC[C@@H]1[C@@H]2CC[C@]2(C)C(=O)CC[C@@H]12 [ANDROSTERONE], which IC50 is on record?
A: Its IC50 is “Not Active”.

Q: With CC12CCC(CC1)C(C)(C)O2 [EUCALYPTOL] as the molecule, how does the IC50 read?
A: Its IC50 is “Not Active”.

Q: For Nc1nc(N)c2nc(CNc3ccc(C(=O)N[C@@H](CCC(=O)O)C(=O)O)cc3)cnc2n1 [AMINOPTERIN], which IC50 is on record?
A: The IC50 was “Not Active”.

Q: Which IC50 does the source give for Nc1ccc(Cc2ccc(N)cc2)cc1 here?
A: Its IC50 is “Not Active”.

Test system: not listed separately
Assay: DRUGMATRIX: Glutamate, NMDA, Phencyclidine radioligand binding (ligand: [3H] TCP)
Type: cell membranes, Rattus norvegicus, Wistar, Cerebral cortex, Membrane
Conditions: Not Active = under 50% inhibition at 10 µM

Q: Which IC50 does the source give for ClC1=C(Cl)[C@]2(Cl)[C@@H]3[C@@H]4C[C@@H]([C@H]5O[C@@H]45)[C@@H]3[C@@]1(Cl)C2(Cl)Cl [DIELDRIN] here?
A: The IC50 was “Not Active”.

Q: And the Ki?
A: Its Ki is “Not Active”.

Q: What does the source list for c1ccc(Cn2ccnc2)cc1?
A: IC50: Not Active; Ki: Not Active

Q: Which results are given for C[C@]12CC[C@@H](O)C[C@@H]1CC[C@@H]1[C@@H]2CC[C@]2(C)C(=O)CC[C@@H]12 [ANDROSTERONE]?
A: IC50: Not Active; Ki: Not Active

Q: Which IC50 does the source give for CC12CCC(CC1)C(C)(C)O2 [EUCALYPTOL] here?
A: The IC50 was “Not Active”.

Q: What about the Ki of the same molecule?
A: Its Ki is “Not Active”.

Q: For Nc1nc(N)c2nc(CNc3ccc(C(=O)N[C@@H](CCC(=O)O)C(=O)O)cc3)cnc2n1 [AMINOPTERIN], which IC50 is on record?
A: Its IC50 is “Not Active”.

Q: And the Ki?
A: Its Ki is “Not Active”.

Q: For Nc1ccc(Cc2ccc(N)cc2)cc1, which IC50 is on record?
A: The IC50 was “Not Active”.

Q: And the Ki?
A: The Ki was “Not Active”.

Test system: not listed separately
Assay: DRUGMATRIX: Platelet-Derived Growth Factor (PDGF) radioligand binding (ligand: [125I] PDGF)
Type: cell-based
Conditions: nih3t3; Not Active = under 50% inhibition at 10 µM

Q: Which IC50 does the source give for ClC1=C(Cl)[C@]2(Cl)[C@@H]3[C@@H]4C[C@@H]([C@H]5O[C@@H]45)[C@@H]3[C@@]1(Cl)C2(Cl)Cl [DIELDRIN] here?
A: Its IC50 is “Not Active”.

Q: And the Ki?
A: Its Ki is “Not Active”.

Q: With c1ccc(Cn2ccnc2)cc1 as the molecule, how does the IC50 read?
A: The IC50 was “Not Active”.

Q: What about the Ki of the same molecule?
A: The Ki was “Not Active”.

Q: With C[C@]12CC[C@@H](O)C[C@@H]1CC[C@@H]1[C@@H]2CC[C@]2(C)C(=O)CC[C@@H]12 [ANDROSTERONE] as the molecule, how does the IC50 read?
A: Its IC50 is “Not Active”.

Q: And the Ki?
A: The Ki was “Not Active”.

Q: For CC12CCC(CC1)C(C)(C)O2 [EUCALYPTOL], which IC50 is on record?
A: The IC50 was “Not Active”.

Q: And the Ki?
A: Its Ki is “Not Active”.

Q: With Nc1nc(N)c2nc(CNc3ccc(C(=O)N[C@@H](CCC(=O)O)C(=O)O)cc3)cnc2n1 [AMINOPTERIN] as the molecule, how does the IC50 read?
A: Its IC50 is “Not Active”.

Q: And the Ki?
A: Its Ki is “Not Active”.

Q: Which IC50 does the source give for Nc1ccc(Cc2ccc(N)cc2)cc1 here?
A: Its IC50 is “Not Active”.

Q: And the Ki?
A: The Ki was “Not Active”.

Molecular target: Mitogen-activated protein kinase 3 (Homo sapiens, UniProt P27361)
Sequence (P27361 whole entry): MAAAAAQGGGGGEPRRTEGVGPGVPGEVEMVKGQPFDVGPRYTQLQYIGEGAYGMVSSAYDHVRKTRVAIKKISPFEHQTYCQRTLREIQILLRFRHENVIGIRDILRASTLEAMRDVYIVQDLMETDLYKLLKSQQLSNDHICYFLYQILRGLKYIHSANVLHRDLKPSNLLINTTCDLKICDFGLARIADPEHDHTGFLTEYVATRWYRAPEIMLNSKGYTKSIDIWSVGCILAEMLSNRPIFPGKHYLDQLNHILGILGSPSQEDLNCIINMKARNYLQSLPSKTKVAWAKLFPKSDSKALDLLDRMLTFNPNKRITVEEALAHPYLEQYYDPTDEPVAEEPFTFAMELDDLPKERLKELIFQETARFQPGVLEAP
Assay: DRUGMATRIX: Protein Serine/Threonine Kinase, ERK1 enzyme inhibition (substrate: Myelin Basic Protein)
Set-up: species or system Escherichia coli
Conditions: Not Active = under 50% inhibition at 10 µM

Q: For ClC1=C(Cl)[C@]2(Cl)[C@@H]3[C@@H]4C[C@@H]([C@H]5O[C@@H]45)[C@@H]3[C@@]1(Cl)C2(Cl)Cl [DIELDRIN], which IC50 is on record?
A: The IC50 was “Not Active”.

Q: Which IC50 does the source give for c1ccc(Cn2ccnc2)cc1 here?
A: The IC50 was “Not Active”.

Q: For C[C@]12CC[C@@H](O)C[C@@H]1CC[C@@H]1[C@@H]2CC[C@]2(C)C(=O)CC[C@@H]12 [ANDROSTERONE], which IC50 is on record?
A: The IC50 was “Not Active”.

Q: Which IC50 does the source give for CC12CCC(CC1)C(C)(C)O2 [EUCALYPTOL] here?
A: The IC50 was “Not Active”.

Q: With Nc1nc(N)c2nc(CNc3ccc(C(=O)N[C@@H](CCC(=O)O)C(=O)O)cc3)cnc2n1 [AMINOPTERIN] as the molecule, how does the IC50 read?
A: Its IC50 is “Not Active”.

Q: Which IC50 does the source give for Nc1ccc(Cc2ccc(N)cc2)cc1 here?
A: The IC50 was “Not Active”.

Molecular target: Acetylcholinesterase (Homo sapiens, UniProt P22303)
Sequence (P22303 whole entry): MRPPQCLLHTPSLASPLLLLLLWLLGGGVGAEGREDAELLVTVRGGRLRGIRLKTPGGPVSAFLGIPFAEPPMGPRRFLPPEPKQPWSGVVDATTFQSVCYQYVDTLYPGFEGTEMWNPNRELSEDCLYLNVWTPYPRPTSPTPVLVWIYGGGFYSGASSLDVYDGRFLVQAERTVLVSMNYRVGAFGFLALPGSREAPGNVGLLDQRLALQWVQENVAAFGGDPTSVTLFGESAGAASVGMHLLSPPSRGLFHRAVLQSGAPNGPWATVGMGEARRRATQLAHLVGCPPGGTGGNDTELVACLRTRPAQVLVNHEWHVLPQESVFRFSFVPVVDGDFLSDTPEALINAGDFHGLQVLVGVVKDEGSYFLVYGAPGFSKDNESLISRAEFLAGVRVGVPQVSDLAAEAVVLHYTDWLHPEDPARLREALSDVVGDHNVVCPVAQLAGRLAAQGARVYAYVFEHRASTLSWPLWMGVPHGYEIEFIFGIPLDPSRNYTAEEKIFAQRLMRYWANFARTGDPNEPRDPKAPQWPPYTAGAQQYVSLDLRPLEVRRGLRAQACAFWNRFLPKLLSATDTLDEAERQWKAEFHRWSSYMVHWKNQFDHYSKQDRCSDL
Assay: DRUGMATRIX: Acetylcholinesterase enzyme inhibition (substrate: acetylthiocholine)
Type: cell-based, HEK293
Conditions: hek293; Not Active = under 50% inhibition at 10 µM

Q: For ClC1=C(Cl)[C@]2(Cl)[C@@H]3[C@@H]4C[C@@H]([C@H]5O[C@@H]45)[C@@H]3[C@@]1(Cl)C2(Cl)Cl [DIELDRIN], which IC50 is on record?
A: Its IC50 is “Not Active”.

Q: For c1ccc(Cn2ccnc2)cc1, which IC50 is on record?
A: Its IC50 is “Not Active”.

Q: Which IC50 does the source give for C[C@]12CC[C@@H](O)C[C@@H]1CC[C@@H]1[C@@H]2CC[C@]2(C)C(=O)CC[C@@H]12 [ANDROSTERONE] here?
A: The IC50 was “Not Active”.

Q: Which IC50 does the source give for CC12CCC(CC1)C(C)(C)O2 [EUCALYPTOL] here?
A: The IC50 was “Not Active”.

Q: For Nc1nc(N)c2nc(CNc3ccc(C(=O)N[C@@H](CCC(=O)O)C(=O)O)cc3)cnc2n1 [AMINOPTERIN], which IC50 is on record?
A: Its IC50 is “Not Active”.

Q: With Nc1ccc(Cc2ccc(N)cc2)cc1 as the molecule, how does the IC50 read?
A: The IC50 was “Not Active”.

Molecular target: Adenosine receptor A2a (Homo sapiens, UniProt P29274)
Sequence (P29274 whole entry): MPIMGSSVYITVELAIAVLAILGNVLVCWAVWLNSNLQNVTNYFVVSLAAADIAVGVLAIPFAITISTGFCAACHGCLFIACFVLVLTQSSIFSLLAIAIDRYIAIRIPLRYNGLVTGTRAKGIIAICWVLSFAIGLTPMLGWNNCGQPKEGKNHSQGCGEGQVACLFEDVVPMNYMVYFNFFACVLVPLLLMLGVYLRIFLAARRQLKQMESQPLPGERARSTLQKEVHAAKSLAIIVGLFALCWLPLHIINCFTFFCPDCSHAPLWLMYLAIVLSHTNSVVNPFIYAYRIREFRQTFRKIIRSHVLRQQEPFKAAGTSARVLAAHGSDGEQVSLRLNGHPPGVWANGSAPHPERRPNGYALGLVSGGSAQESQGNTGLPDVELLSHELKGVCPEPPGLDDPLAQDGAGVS
Assay: DRUGMATRIX: Adenosine A2A radioligand binding (ligand: […])
Type: cell membranes, HEK293, Membrane
Conditions: hek293; Not Active = under 50% inhibition at 10 µM

Q: Which IC50 does the source give for ClC1=C(Cl)[C@]2(Cl)[C@@H]3[C@@H]4C[C@@H]([C@H]5O[C@@H]45)[C@@H]3[C@@]1(Cl)C2(Cl)Cl [DIELDRIN] here?
A: The IC50 was “Not Active”.

Q: Which IC50 does the source give for c1ccc(Cn2ccnc2)cc1 here?
A: The IC50 was “Not Active”.

Q: Which IC50 does the source give for C[C@]12CC[C@@H](O)C[C@@H]1CC[C@@H]1[C@@H]2CC[C@]2(C)C(=O)CC[C@@H]12 [ANDROSTERONE] here?
A: The IC50 was “Not Active”.

Q: Which IC50 does the source give for CC12CCC(CC1)C(C)(C)O2 [EUCALYPTOL] here?
A: The IC50 was “Not Active”.

Q: Which IC50 does the source give for Nc1nc(N)c2nc(CNc3ccc(C(=O)N[C@@H](CCC(=O)O)C(=O)O)cc3)cnc2n1 [AMINOPTERIN] here?
A: Its IC50 is “Not Active”.

Q: Which IC50 does the source give for Nc1ccc(Cc2ccc(N)cc2)cc1 here?
A: The IC50 was “Not Active”.

Molecular target: T2, Cytochrome P450 2A6 (Homo sapiens, UniProt P11509); further: in other assays of this panel Not Active means under 50% inhibition at 10 µM
T2 sequence (P11509 whole entry): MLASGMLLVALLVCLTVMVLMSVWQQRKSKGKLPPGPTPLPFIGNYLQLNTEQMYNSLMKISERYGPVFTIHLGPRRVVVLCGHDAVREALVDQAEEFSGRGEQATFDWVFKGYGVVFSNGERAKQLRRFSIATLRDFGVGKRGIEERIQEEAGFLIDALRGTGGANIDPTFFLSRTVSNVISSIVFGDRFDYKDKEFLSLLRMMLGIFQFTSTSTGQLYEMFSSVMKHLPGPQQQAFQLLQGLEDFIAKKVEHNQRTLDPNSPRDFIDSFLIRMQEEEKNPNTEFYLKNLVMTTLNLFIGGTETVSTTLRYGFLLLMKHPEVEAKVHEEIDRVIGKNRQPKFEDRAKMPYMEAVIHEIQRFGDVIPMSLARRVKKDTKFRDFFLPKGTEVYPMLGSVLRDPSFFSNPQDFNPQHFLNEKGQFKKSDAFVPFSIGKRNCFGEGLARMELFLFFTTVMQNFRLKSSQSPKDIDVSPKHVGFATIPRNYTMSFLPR
Conditions: bti-tn-5b1-4

Q: For ClC1=C(Cl)[C@]2(Cl)[C@@H]3[C@@H]4C[C@@H]([C@H]5O[C@@H]45)[C@@H]3[C@@]1(Cl)C2(Cl)Cl [DIELDRIN], which IC50 is on record?
A: The IC50 was “Not Active”.

Q: What about the Ki of the same molecule?
A: Its Ki is “Not Active”.

Q: For c1ccc(Cn2ccnc2)cc1, which IC50 is on record?
A: The IC50 was “Not Active”.

Q: What about the Ki of the same molecule?
A: The Ki was “Not Active”.

Q: With C[C@]12CC[C@@H](O)C[C@@H]1CC[C@@H]1[C@@H]2CC[C@]2(C)C(=O)CC[C@@H]12 [ANDROSTERONE] as the molecule, how does the IC50 read?
A: Its IC50 is “Not Active”.

Q: What about the Ki of the same molecule?
A: The Ki was “Not Active”.

Q: For CC12CCC(CC1)C(C)(C)O2 [EUCALYPTOL], which IC50 is on record?
A: Its IC50 is “Not Active”.

Q: And the Ki?
A: The Ki was “Not Active”.

Q: With Nc1nc(N)c2nc(CNc3ccc(C(=O)N[C@@H](CCC(=O)O)C(=O)O)cc3)cnc2n1 [AMINOPTERIN] as the molecule, how does the IC50 read?
A: The IC50 was “Not Active”.

Q: And the Ki?
A: The Ki was “Not Active”.

Q: For Nc1ccc(Cc2ccc(N)cc2)cc1, which IC50 is on record?
A: The IC50 was “Not Active”.

Q: What about the Ki of the same molecule?
A: The Ki was “Not Active”.
